In the SangsterLogP compilation:

| Structure (SMILES) | logP |
| --- | --- |
| NC(N)=S | -1.08 |
| CC1(C)SC2C(NC(=O)C(O)c3ccccc3)C(=O)N2C1C(=O)O (stereo unspecified) | 1.4 |
| CCS(=O)(=O)CCn1c([N+](=O)[O-])cnc1C | -0.35 |
| O=C1CCCC(=O)N1 | 1.9 |
| CCC1(CC)C(=O)NC(=O)NC1=O | 0.65 |
| O=[N+]([O-])c1cccc2ccc[n+]([O-])c12 | 0.04 |
| CC(N)C(=O)O (racemic) | -2.96 |
| Cc1cnccn1 | 0.21 |
| N[C@@H](Cc1cnc[nH]1)C(=O)O | -3.32 |
| CCCCNCCC | 2.12 |
| COc1ccc(CC(C)N)c(OC)c1 (stereo unspecified) | 1.75 |
| O=NN(CCCl)C(=O)NC1CCCCC1 | 2.83 |
| OCc1ccccc1O | 0.73 |
| c1ccc2sccc2c1 | 3.12 |
| COC | 0.1 |
| CCCCCC=O | 1.78 |
| Fc1ccc(F)cc1 | 2.13 |
| CCN(C)C | 0.7 |
| CN(C)C | 0.16 |
| Nc1cccc(Cl)c1 | 1.88 |
| CCCCC1(CC)C(=O)NC(=O)NC1=O | 1.73 |
| CC(=O)CC(C)=O | 0.4 |

| Structure (SMILES) | logP |
| --- | --- |
| Cc1cc(Cl)ccc1O | 2.63 |
| CC1(C)S[C@@H]2[C@H](NC(=O)[C@H](N)c3ccccc3)C(=O)N2[C@H]1C(=O)O | 1.35 |
| O=C1CN(/N=C/c2ccc([N+](=O)[O-])o2)C(=O)N1 | -0.47 |
| Nc1ccccc1[N+](=O)[O-] | 1.85 |
| OCCCCc1ccccc1 | 2.35 |
| Nc1ccc(Cl)c(Cl)c1 | 2.69 |
| CCOc1cccc(OC(=O)NC)c1 | 1.75 |
| N#Cc1cccs1 | 1.27 |
| c1cn[nH]c1 | 0.26 |
| CNCC(O)c1ccc(O)c(O)c1 (stereo unspecified) | -1.37 |
| Clc1cccc(-c2ccccc2)c1 | 4.58 |
| c1ncncn1 | -0.73 |
| c1ccc2occc2c1 | 2.67 |
| CCOC(=O)c1ccccn1 | 0.87 |
| CCCCCCCCCCCC(=O)O | 4.6 |
| Cn1cnc([N+](=O)[O-])c1Sc1ncnc2nc[nH]c12 | 0.1 |
| O=C(O)CONC(=O)Nc1ccccc1 | 0.26 |
| CC(C)C(=O)C(C#N)=NNc1ccc(Cl)cc1C(F)(F)F | 5.67 |
| CC(=O)C(C#N)=NNc1ccc(SC(F)(F)F)cc1 | 5.04 |
| CCCSc1nnc(C(C)C)c(=O)n1N | 2.12 |
| CC(=O)N(C)c1ccccc1 | 1.12 |
| NC(=O)c1ncccc1O | 0.65 |

| Structure (SMILES) | logP |
| --- | --- |
| Nc1nc(N)c2ncn([C@H]3C[C@H](F)[C@@H](CO)O3)c2n1 | 0.05 |
| Cc1ccc(C)c2ccccc12 | 4.37 |
| COCc1ccccc1 | 1.92 |
| OCc1cccc(O)c1 | 0.49 |
| CCOC(=O)c1ccc(N)cc1 | 1.86 |
| Cc1cc(C)cc(O)c1 | 2.35 |
| O=C1CC(=O)NC(=O)N1 | -1.47 |
| NC(=O)CCCc1ccccn1 | -0.09 |
| Oc1cccc(O)c1 | 0.8 |
| Oc1ccc(Cl)cc1Cl | 3.06 |
| CN(C)CCC(c1ccc(Cl)cc1)c1ccccn1 (stereo unspecified) | 3.38 |
| CC(=O)OC1C(Cl)C(Cl)C(Cl)C(Cl)C1Cl (stereo unspecified) | 3.4 |
| CCCc1cc(NC(C)=O)cc(CCC)c1O | 3.16 |
| CC(=O)c1ccncc1 | 0.48 |
| Clc1ccccc1-c1ccccc1 | 4.53 |
| CN(C)CC/C=C1\c2ccccc2Sc2ccc(Cl)cc21 | 5.18 |
| CNC(=O)Oc1cccc(OC)c1 | 1.3 |
| CC(C)NC(=O)C=Cc1ccc([N+](=O)[O-])o1 | 1.34 |
| CCCCNC(=O)NCCCC | 1.4 |
| NS(=O)(=O)c1ccccc1Cl | 0.74 |
| Nc1ccn([C@H]2C[C@H](O)[C@@H](CO)O2)c(=O)n1 | -1.77 |
| CCCC(C)=O | 0.91 |

| Structure (SMILES) | logP |
| --- | --- |
| c1ccc2nccnc2c1 | 1.32 |
| O=[N+]([O-])c1ccc(N=C=S)cc1 | 3.62 |
| OCCBr | 0.23 |
| COc1ccccc1C(N)=O | 0.86 |
| Cn1c([N+](=O)[O-])cnc1/C=C/c1ccnc(N)n1 | 0.85 |
| O=[N+]([O-])c1ccccc1 | 1.85 |
| CCN(CC)c1ccccc1 | 3.31 |
| [O-][n+]1cccc2ccccc21 | 0.36 |
| COC(=O)C(C#N)=NNc1ccccc1 | 2.59 |
| COc1ccc(CC(C)N)cc1OC (stereo unspecified) | 1.2 |
| C=CCNCC | 0.81 |
| CCCc1ccc(S(N)(=O)=O)cc1 | 1.64 |
| C1CCOC1 | 0.46 |
| c1ccc(Cc2ccccc2)cc1 | 4.14 |
| CNc1ccc([N+](=O)[O-])cc1 | 2.04 |
| C1CN2CCC1CC2 | 1.38 |
| Cc1ccccc1O | 1.95 |
| Oc1c(Cl)cc(Cl)c(Cl)c1Cl | 4.45 |
| OCc1ccc(O)cc1 | 0.25 |
| C=C1C(=O)OC2CC(C)C3C=CC(=O)C3(C)C(O)C12 (stereo unspecified) | 0.87 |
